# Reference: the supplement of paper PMC10307832
# Tests used:
# Assay in all cases: relative viability (nuclei count vs DMSO), 5 days (fraction); higher = more cells survive
# [1] = system: NCI-H520
# In short: (§1)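 Lung cancer cell lines in 1536-well plates got either a single drug or a fixed anchor-drug dose together with five library-drug doses (not always all listed) in √10 steps, by pin tool, on the day after seeding. Nuclei were counted after 5 days, and relative viability is the treated-to-vehicle ratio of nuclei counts. Values are medians of duplicate plates.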
# [2] = system: NCI-H1944
# In short: as §1
# [3] = system: NCI-H1651
# In short: as §1
# [4] = system: NCI-H2087
# In short: as §1
# [5] = system: HCC-15
# In short: as §1
# [6] = system: NCI-H1975
# In short: as §1
# [7] = system: HCC-827
# In short: as §1
# [8] = system: NCI-H661
# In short: as §1
# [9] = system: NCI-H647
# In short: as §1
# [10] = system: NCI-H1792
# In short: as §1
# [11] = system: COR-L 105
# In short: as §1
# [12] = system: NCI-H522
# In short: as §1
# [13] = system: NCI-H650
# In short: as §1
# [14] = system: COR-L23
# In short: as §1
# [15] = system: NCI-H1755
# In short: as §1
# [16] = system: NCI-H358
# In short: as §1
# [17] = system: H3255
# In short: as §1
# [18] = system: EPLC-272H
# In short: as §1
# [19] = system: NCI-H1437
# In short: as §1
# [20] = system: NCI-H1650
# In short: as §1
# [21] = system: LCLC-103H
# In short: as §1
smiles,measurement,setting,value
COCC1(CO)C(=O)C2CCN1CC2 (stereo unspecified) [PRIMA-1MET] + Nc1nc2[nH]cc(CCc3ccc(C(=O)N[C@@H](CCC(=O)O)C(=O)O)cc3)c2c(=O)[nH]1 [Pemetrexed] (partner 0.2 µM),relative viability,[1]; first compound 0.2 µM,0.726
same,relative viability,[1]; first compound 2 µM,0.681
same,relative viability,[1]; first compound 6.325 µM,0.647
same,relative viability,[1]; first compound 20 µM,0.421
same,relative viability,[2]; first compound 0.2 µM,0.738
same,relative viability,[2]; first compound 0.6325 µM,0.555
same,relative viability,[2]; first compound 2 µM,0.535
same,relative viability,[2]; first compound 6.325 µM,0.519
same,relative viability,[2]; first compound 20 µM,0.655
same,relative viability,[3]; first compound 0.2 µM,0.641
same,relative viability,[3]; first compound 0.6325 µM,0.192
same,relative viability,[3]; first compound 2 µM,0.542
same,relative viability,[3]; first compound 6.325 µM,0.605
same,relative viability,[3]; first compound 20 µM,0.651
same,relative viability,[4]; first compound 0.6325 µM,0.639
same,relative viability,[4]; first compound 2 µM,0.68
same,relative viability,[4]; first compound 6.325 µM,0.61
same,relative viability,[4]; first compound 20 µM,0.563
same,relative viability,[5]; first compound 0.2 µM,0.213
same,relative viability,[5]; first compound 0.6325 µM,0.214
same,relative viability,[5]; first compound 2 µM,0.212
same,relative viability,[5]; first compound 6.325 µM,0.21
same,relative viability,[5]; first compound 20 µM,0.217
same,relative viability,[6]; first compound 0.2 µM,0.31
same,relative viability,[6]; first compound 0.6325 µM,0.266
same,relative viability,[6]; first compound 2 µM,0.28
same,relative viability,[6]; first compound 6.325 µM,0.292
same,relative viability,[6]; first compound 20 µM,0.282
same,relative viability,[7]; first compound 0.2 µM,0.221
same,relative viability,[7]; first compound 0.6325 µM,0.144
same,relative viability,[7]; first compound 2 µM,0.239
same,relative viability,[7]; first compound 6.325 µM,0.554
same,relative viability,[7]; first compound 20 µM,0.275
same,relative viability,[8]; first compound 0.2 µM,0.954
same,relative viability,[8]; first compound 0.6325 µM,0.849
same,relative viability,[8]; first compound 2 µM,0.952
same,relative viability,[8]; first compound 6.325 µM,0.963
same,relative viability,[8]; first compound 20 µM,0.928
same,relative viability,[9]; first compound 0.2 µM,0.19
same,relative viability,[9]; first compound 0.6325 µM,0.152
same,relative viability,[9]; first compound 2 µM,0.19
same,relative viability,[9]; first compound 6.325 µM,0.173
same,relative viability,[9]; first compound 20 µM,0.124
same,relative viability,[10]; first compound 0.2 µM,0.713
same,relative viability,[10]; first compound 6.325 µM,0.947
same,relative viability,[10]; first compound 20 µM,0.676
same,relative viability,[11]; first compound 0.2 µM,1.3
same,relative viability,[11]; first compound 0.6325 µM,1.17
same,relative viability,[11]; first compound 2 µM,1.22
same,relative viability,[11]; first compound 6.325 µM,1.1
same,relative viability,[11]; first compound 20 µM,0.229
same,relative viability,[12]; first compound 0.2 µM,0.789
same,relative viability,[12]; first compound 0.6325 µM,0.927
same,relative viability,[12]; first compound 2 µM,1.01
same,relative viability,[12]; first compound 6.325 µM,0.946
same,relative viability,[12]; first compound 20 µM,0.423
same,relative viability,[13]; first compound 0.2 µM,1.26
same,relative viability,[13]; first compound 0.6325 µM,0.894
same,relative viability,[13]; first compound 2 µM,0.884
same,relative viability,[13]; first compound 6.325 µM,0.978
same,relative viability,[13]; first compound 20 µM,0.263
same,relative viability,[14]; first compound 0.2 µM,0.184
same,relative viability,[14]; first compound 0.6325 µM,0.199
same,relative viability,[14]; first compound 2 µM,0.191
same,relative viability,[14]; first compound 6.325 µM,0.192
same,relative viability,[14]; first compound 20 µM,0.0784
same,relative viability,[15]; first compound 0.2 µM,0.465
same,relative viability,[15]; first compound 0.6325 µM,0.388
same,relative viability,[15]; first compound 2 µM,0.406
same,relative viability,[15]; first compound 6.325 µM,0.333
same,relative viability,[15]; first compound 20 µM,0.373
same,relative viability,[16]; first compound 0.2 µM,0.175
same,relative viability,[16]; first compound 0.6325 µM,0.159
same,relative viability,[16]; first compound 2 µM,0.165
same,relative viability,[16]; first compound 6.325 µM,0.164
same,relative viability,[16]; first compound 20 µM,0.198
same,relative viability,[17]; first compound 0.2 µM,0.634
same,relative viability,[17]; first compound 0.6325 µM,0.458
same,relative viability,[17]; first compound 2 µM,0.601
same,relative viability,[17]; first compound 6.325 µM,0.567
same,relative viability,[17]; first compound 20 µM,0.534
same,relative viability,[18]; first compound 0.2 µM,0.35
same,relative viability,[18]; first compound 0.6325 µM,0.403
same,relative viability,[18]; first compound 2 µM,0.314
same,relative viability,[18]; first compound 6.325 µM,0.317
same,relative viability,[18]; first compound 20 µM,0.138
same,relative viability,[19]; first compound 0.2 µM,0.32
same,relative viability,[19]; first compound 0.6325 µM,0.284
same,relative viability,[19]; first compound 2 µM,0.308
same,relative viability,[19]; first compound 6.325 µM,0.298
same,relative viability,[19]; first compound 20 µM,0.283
same,relative viability,[20]; first compound 0.2 µM,0.407
same,relative viability,[20]; first compound 0.6325 µM,0.306
same,relative viability,[20]; first compound 2 µM,0.399
same,relative viability,[20]; first compound 6.325 µM,0.374
same,relative viability,[20]; first compound 20 µM,0.304
same,relative viability,[21]; first compound 0.2 µM,0.45
same,relative viability,[21]; first compound 0.6325 µM,0.503
same,relative viability,[21]; first compound 2 µM,0.459
same,relative viability,[21]; first compound 6.325 µM,0.499
same,relative viability,[21]; first compound 20 µM,0.451
